Assay results: US20050004024A1, “Methods of treating Pin1 associated disorders by covalent modification of active site residues” (PINTEX PHARMACEUTICALS, INC., priority 2003, published 2005)

Target: Pin1 (Homo sapiens, UniProt Q13526)
Experiment: Time dependent inactivation of Pin1 (pre-incubation, then protease coupled Pin1 assay)
Type: biochemical
Details: 7.4 uM Pin1 incubated with 200 uM compound, 1% DMF, 35 mM hepes pH 7.8; aliquots diluted to 1 nM Pin1; FIG. 2
Experimental: Pin1 was incubated with Fred-A to determine the effect on peptidyl prolyl isomerase activity.
(§1) A solution containing 7.4 uM Pin1, 100 uM juglone 1% DMF, in 35 mM hepes pH 7.8 was incubated. At various time points, aliquots were removed and diluted into assay buffer containing 1 nM Pin1, 13.5 nM juglone, 0.1 mg/ml BSA, 0.2 mM DTT, and 35 mM Hepes pH 7.8. Pin1 activity was measured by using a protease coupled Pin1 assay.
Aliquots of the incubation mixtures were diluted 7,200 fold into assay buffer (0.1 mg/mL BSA, 0.2 mM DTT and 35 mM Hepes pH 7.8) to a final Pin1 concentration of 1 nM. 20 uL of a 0.4 mg/mL trypsin solution in 35 mM Hepes pH 7.8 was added to 1.2 mL Pin1 solution. The enzymatic reaction was initiated by the addition of 3 uL the substrate solution (15/mg/mL of Ac-Ala-Ala-(PO3)Ser-Pro-Arg-pNA dissolved in a solution of 0.5 M LiCl in trifluroethanol). The reaction progress was monitored at 390 nm for 8 minutes at 4° C.
as §1, with “200” for “100”, “27” for “13.5”, “as described above for juglone.” for “by using a protease coupled Pin1 assay.”

Pin1, sequence (Q13526 whole entry): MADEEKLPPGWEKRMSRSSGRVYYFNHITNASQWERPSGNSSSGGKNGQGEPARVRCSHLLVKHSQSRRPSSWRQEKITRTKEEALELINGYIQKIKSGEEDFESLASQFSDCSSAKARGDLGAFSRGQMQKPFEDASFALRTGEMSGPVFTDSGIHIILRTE

Fredericamycin A [Fred-A]
effect on peptidyl prolyl isomerase activity / covalent modification of Pin1: modified in a manner consistent with covalent modification of the active site
